From patent publication US20250263437A1, “POLYPEPTIDE FOR REPAIRING SKIN WOUND OR MUCOSAL INJURY, AND APPLICATION THEREOF” (Sichuan Gooddoctor Panxi Pharmaceutical Co., Ltd., priority 2021, published 2025)
Entries after “also recorded” stand apart in the source; their conditions may differ. Where no end group is shown, it is not given here.

Columns and labels:
[1] = test system: ethanol-induced gastric ulcer model in mice; assay: Anti-ulcer effect on ethanol-induced gastric ulcer model in mice; assay type: in vivo; details: single administration; ulcer inhibition rate of test compound / ulcer inhibition rate of Compound 1
Description: Experimental animals: Six-week old C57BL/6JGPt male mice, weighing about 20 g/mouse, were selected, with 10 mice in each group, from GemPharmatech (Chengdu) Co., Ltd., animal license number: SCXK (Chuan) 2020-034. After the experimental animals were divided into groups, they were dosed according to Table 5 one day before the experiment. Among the groups, the model group was given 200 μl of pure water, and the other dose groups were given 200 μl of drug solution. After that, all the animals were fasted for 24 h with free access to water. The next day, 1 h after administration, the mice in each group were given 9 μl/g of absolute ethanol by oral gavage for modeling. After 1 h, the animals were sacrificed by cervical dislocation, the gastric cardia was ligated, the pylorus was occluded, and the whole stomach was removed. 1 mL of 1% formaldehyde solution was injected into the gastric lumen via the glandular stomach, the cardia was ligated, and the stomach was taken out and immediately immersed in 1% formaldehyde solution. After soaking for 30 min, the stomach tissue was taken out and cut open along the greater curvature. The content of the stomach was rinsed off with normal saline, the injury of the gastric mucosa in the mice were observed and measured after being laid flat, and the ulcer index and ulcer inhibition rate were calculated; panoramic photos of the stomach were taken; and finally, the gastric tissue sample was immersed in formalin and fixed. Calculation method for ulcer index: If the length of cord-like injury was greater than 1 mm, the length thereof was measured, with 1 point per millimeter; if the width thereof was greater than 1 mm, the score thereof was doubled according to the number of millimeters of the width; and if the length was less than 1 mm, a score of 0.5 was given, and the scores were added up to obtain the ulcer index of the animal. Method of data statistics: the ulcer index was expressed as mean±standard deviation; the ulcer inhibition rate was calculated by using the median value and mean value of the ulcer index in each dosage group and simulation group; and the data were statistically analyzed by means of Excel, and the difference data of the gastric ulcer index were statistically analyzed by means of independent sample T test.

HMEC-1 cells = assay: Proliferation of HMEC-1 cells (CCK-8); assay type: cell-based, Human; details: 0.05, 0.2 and 0.8 ug/mL; 48 h; 0% serum
Description: Human microvascular endothelial cells (HMEC-1 cells) were cultured in 10% serum culture medium at 37° C. and 5% CO2, the medium was replaced every 1-2 d, and the cell concentration was controlled to be 4×10^6 cells/mL for passage. Cells were collected, prepared to […] with complete culture medium, inoculated into a 96-well cell culture plate, with 100 μL per well, i.e., 5000 cells/well, and cultured at 37° C. and 5% CO2 until the cells adhered to the wall. The polypeptide compound of the present invention was prepared to test concentrations (0.05 ug/mL, 0.2 ug/mL, and 0.8 ug/mL) with 0% serum culture medium as experimental groups, a positive drug (300 ng/ml) was prepared in the same way and added as a positive control, and an equal amount of 0% serum drug-free culture medium was added to the control group. They were added to 5 duplicate wells, and the resultants were incubated at 37° C. and 5% CO2 for 48 h. Detection of the proliferation of cells using CCK-8: the old culture medium was removed, and a serum-free medium containing 10% CCK-8 was added to each well. After incubation in an incubator for 2 h, the absorbance at 450 nm was measured by a microplate reader.

[2] = test system: chronic atrophic gastritis model in mice; assay: Therapeutic effect on chronic atrophic gastritis model in mice (MNNG combined with ranitidine); assay type: in vivo; details: 5 mg/kg daily by gavage, 2 weeks
Description: Method: Chronic atrophic gastritis was induced by MNNG (N-methyl-N-nitro-N-nitrosoguanidine) combined with ranitidine. The mice were free to access to an aqueous solution containing MNNG ([…]), and at the same time, the mice were given ranitidine (8 mg/ml) aqueous solution at a dose of 150 mg/kg by gavage at a fixed time per day for 20 consecutive weeks. After 20 weeks of modeling, on the basis of drinking ordinary distilled water, the mice were given Compound 1 (5 mg/kg) daily by gavage.

| Sequence | Anti-ulcer activity (mean relative ulcer inhibition rate) [1] | effect on proliferation of HMEC-1 cells (HMEC-1 cells) | repair / therapeutic effect on chronic atrophic gastritis [2] | height of the mucosa in the gastric antrum ([2]; compared with the model group) | number of parietal cells ([2]; compared with the model group) | structure of the gastric gland ([2]; compared with the model group) |
| --- | --- | --- | --- | --- | --- | --- |
| AAVLDKLE [Compound 68] | 0.85 | – | – | – | – | – |
| SMQASLEAEAKGKAE [Compound 1] | 1.00 | significant proliferation promoting effects; also recorded: proliferation-promoting effect | could promote the repair of chronic atrophic gastritis in mice; also recorded: therapeutic effect | substantially recovered to the normal state | increased significantly | recovered to normal |
| VDAAVLEKLE [Compound 67] | 0.24 | – | – | – | – | – |
